What was measured:
Type in all cases: in vivo
[1] = tested on: barnyardgrass (Echinochloa crus-galli); experiment: Test A pre-/postemergence: barnyardgrass; details: for Barnyardgrass plant response rating: Postemergence; for Plant response rating, Barnyardgrass: Preemergence
How it was run: (§1)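 Injury was scored visually on a 0 (no effect) to 100 (complete control) scale versus untreated controls roughly ten days after treatment in the greenhouse. Compounds, formulated in surfactant-containing non-phytotoxic solvent, went on as soil-directed preemergence spray or postemergence to one- to two-leaf plants 2–10 cm tall.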

[2] = tested on: crabgrass, large (large crabgrass, Digitaria sanguinalis); experiment: Test A pre-/postemergence: crabgrass, large; details: for Crabgrass, Large plant response rating: Postemergence; for Plant response rating, Crabgrass, Large: Preemergence
How it was run: as §1

[3] = tested on: foxtail, giant (giant foxtail, Setaria faberii); experiment: Test A pre-/postemergence: foxtail, giant; details: for Foxtail, Giant plant response rating: Postemergence; for Plant response rating, Foxtail, Giant: Preemergence
How it was run: as §1

[4] = tested on: morningglory (Ipomoea spp.); experiment: Test A pre-/postemergence: morningglory; details: for Morningglory plant response rating: Postemergence; for Plant response rating, Morningglory: Preemergence
How it was run: as §1

[5] = tested on: pigweed (Amaranthus retroflexus); experiment: Test A pre-/postemergence: pigweed; details: for Pigweed plant response rating: Postemergence; for Plant response rating, Pigweed: Preemergence
How it was run: as §1

[6] = tested on: velvetleaf (Abutilon theophrasti); experiment: Test A pre-/postemergence: velvetleaf; details: for Velvetleaf plant response rating: Postemergence; for Plant response rating, Velvetleaf: Preemergence
How it was run: as §1

[7] = tested on: wheat (Triticum aestivum); experiment: Test A pre-/postemergence: wheat; details: for Wheat plant response rating: Postemergence; for Plant response rating, Wheat: Preemergence
How it was run: as §1

corn (Zea mays) = experiment: Test A pre-/postemergence: corn; details: for Corn plant response rating: Postemergence; for Plant response rating, Corn: Preemergence
How it was run: as §1

rice (Oryza sativa) = experiment: Test C flooded paddy test: rice; details: Flood (flooded paddy test), visual rating after 13 to 15 days, scale 0 to 100 (0 no effect, 100 complete control)
How it was run: (§2)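 Visual ratings from 0 (no effect) to 100 (complete control), made against untreated controls 13 to 15 days after treatment, express plant response. Compounds went directly into paddy water over 2-leaf stage plants in pots flooded to 3 cm.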

[8] = tested on: sedge, umbrella (small-flower umbrella sedge, Cyperus difformis); experiment: Test C flooded paddy test: sedge, umbrella; details: Flood (flooded paddy test), visual rating after 13 to 15 days, scale 0 to 100 (0 no effect, 100 complete control)
How it was run: as §2

[9] = tested on: ducksalad (Heteranthera limosa); experiment: Test C flooded paddy test: ducksalad; details: Flood (flooded paddy test), visual rating after 13 to 15 days, scale 0 to 100 (0 no effect, 100 complete control)
How it was run: as §2

[10] = tested on: barnyardgrass (Echinochloa crus-galli); experiment: Test C flooded paddy test: barnyardgrass; details: Flood (flooded paddy test), visual rating after 13 to 15 days, scale 0 to 100 (0 no effect, 100 complete control)
How it was run: as §2

[11] = 125 g ai/ha, 0 to 100 scale, 0 is no effect, 100 is complete control
[12] = 500 g ai/ha, visual rating on 0 to 100 scale (0 no effect, 100 complete control), approximately ten days
[13] = 125 g ai/ha, 0 to 100 scale (0 no effect, 100 complete control)
[14] = 500 g ai/ha, 0 to 100 scale, 0 is no effect, 100 is complete control

Cc1nn(-c2ccc(F)cc2)nc1Cn1ccc(C(F)(F)F)n1 [Compound 2]
Barnyardgrass plant response rating [1, 11]: 0 | Barnyardgrass plant response rating [1, 12]: 10 | Plant response rating, Barnyardgrass [1, 13]: 0 | Plant response rating, Barnyardgrass [1, 14]: 10 | Crabgrass, Large plant response rating [2, 11]: 10 | Crabgrass, Large plant response rating [2, 12]: 20 | Plant response rating, Crabgrass, Large [2, 13]: 10 | Plant response rating, Crabgrass, Large [2, 14]: 90 | Foxtail, Giant plant response rating [3, 11]: 10 | Foxtail, Giant plant response rating [3, 12]: 20 | Plant response rating, Foxtail, Giant [3, 13]: 10 | Plant response rating, Foxtail, Giant [3, 14]: 50 | Morningglory plant response rating [4, 11]: 10 | Morningglory plant response rating [4, 12]: 20 | Plant response rating, Morningglory [4, 13]: 0 | Plant response rating, Morningglory [4, 14]: 0 | Pigweed plant response rating [5, 11]: 30 | Pigweed plant response rating [5, 12]: 90 | Plant response rating, Pigweed [5, 13]: 0 | Plant response rating, Pigweed [5, 14]: 60 | Velvetleaf plant response rating [6, 11]: 0 | Velvetleaf plant response rating [6, 12]: 0 | Plant response rating, Velvetleaf [6, 13]: 0 | Plant response rating, Velvetleaf [6, 14]: 0 | Wheat plant response rating [7, 11]: 0 | Wheat plant response rating [7, 12]: 10 | Plant response rating, Wheat [7, 13]: 0 | Plant response rating, Wheat [7, 14]: 0 | Corn plant response rating (corn (Zea mays); [11]): 10 | Corn plant response rating (corn (Zea mays); [12]): 10 | Plant response rating, Corn (corn (Zea mays); [13]): 0 | Plant response rating, Corn (corn (Zea mays); [14]): 0 | Plant response rating, Rice (rice (Oryza sativa); 62 g ai/ha): 0 | Plant response rating, Rice (rice (Oryza sativa); 250 g ai/ha): 0 | Plant response rating, Sedge, Umbrella ([8]; 62 g ai/ha): 0 | Plant response rating, Sedge, Umbrella ([8]; 250 g ai/ha): 70 | Plant response rating, Ducksalad ([9]; 62 g ai/ha): 0 | Plant response rating, Ducksalad ([9]; 250 g ai/ha): 0 | Plant response rating, Barnyardgrass ([10]; 62 g ai/ha): 0 | Plant response rating, Barnyardgrass ([10]; 250 g ai/ha): 0

Cc1nn(-c2ccc(C(F)(F)F)cc2)nc1Cn1ccc(C(F)(F)C(F)(F)F)n1 [Compound 12]
Barnyardgrass plant response rating [1, 11]: 30 | Barnyardgrass plant response rating [1, 12]: 80 | Plant response rating, Barnyardgrass [1, 13]: 30 | Plant response rating, Barnyardgrass [1, 14]: 80 | Crabgrass, Large plant response rating [2, 11]: 50 | Crabgrass, Large plant response rating [2, 12]: 90 | Plant response rating, Crabgrass, Large [2, 13]: 90 | Plant response rating, Crabgrass, Large [2, 14]: 100 | Foxtail, Giant plant response rating [3, 11]: 50 | Foxtail, Giant plant response rating [3, 12]: 70 | Plant response rating, Foxtail, Giant [3, 13]: 80 | Plant response rating, Foxtail, Giant [3, 14]: 100 | Morningglory plant response rating [4, 11]: 70 | Morningglory plant response rating [4, 12]: 100 | Plant response rating, Morningglory [4, 13]: 10 | Plant response rating, Morningglory [4, 14]: 40 | Pigweed plant response rating [5, 11]: 100 | Pigweed plant response rating [5, 12]: 100 | Plant response rating, Pigweed [5, 13]: 80 | Plant response rating, Pigweed [5, 14]: 100 | Velvetleaf plant response rating [6, 11]: 70 | Velvetleaf plant response rating [6, 12]: 100 | Plant response rating, Velvetleaf [6, 13]: 60 | Plant response rating, Velvetleaf [6, 14]: 70 | Wheat plant response rating [7, 11]: 10 | Wheat plant response rating [7, 12]: 30 | Plant response rating, Wheat [7, 13]: 0 | Plant response rating, Wheat [7, 14]: 0 | Corn plant response rating (corn (Zea mays); [11]): 20 | Corn plant response rating (corn (Zea mays); [12]): 30 | Plant response rating, Corn (corn (Zea mays); [13]): 0 | Plant response rating, Corn (corn (Zea mays); [14]): 10 | Plant response rating, Rice (rice (Oryza sativa); 62 g ai/ha): 0 | Plant response rating, Rice (rice (Oryza sativa); 250 g ai/ha): 25 | Plant response rating, Sedge, Umbrella ([8]; 62 g ai/ha): 50 | Plant response rating, Sedge, Umbrella ([8]; 250 g ai/ha): 80 | Plant response rating, Ducksalad ([9]; 62 g ai/ha): 60 | Plant response rating, Ducksalad ([9]; 250 g ai/ha): 70 | Plant response rating, Barnyardgrass ([10]; 62 g ai/ha): 40 | Plant response rating, Barnyardgrass ([10]; 250 g ai/ha): 60

From US9302999B2, “Substituted triazoles as herbicides” (E. I. DU PONT DE NEMOURS AND COMPANY, priority 2012, dated 2016)
